Structures are written as SMILES. Active and inactive are the calls of the source. The rule behind the calls is not given here.

The text below walks through data of ChEMBL document CHEMBL2390898, “Optimizing the control of apoptosis by amide/triazole isosteric substitution in a constrained peptoid” (Eur J Med Chem, 2013).

The target of assay [1] is T1, Caspase-9 (Homo sapiens) (UniProt P55211).
T1 sequence (whole entry): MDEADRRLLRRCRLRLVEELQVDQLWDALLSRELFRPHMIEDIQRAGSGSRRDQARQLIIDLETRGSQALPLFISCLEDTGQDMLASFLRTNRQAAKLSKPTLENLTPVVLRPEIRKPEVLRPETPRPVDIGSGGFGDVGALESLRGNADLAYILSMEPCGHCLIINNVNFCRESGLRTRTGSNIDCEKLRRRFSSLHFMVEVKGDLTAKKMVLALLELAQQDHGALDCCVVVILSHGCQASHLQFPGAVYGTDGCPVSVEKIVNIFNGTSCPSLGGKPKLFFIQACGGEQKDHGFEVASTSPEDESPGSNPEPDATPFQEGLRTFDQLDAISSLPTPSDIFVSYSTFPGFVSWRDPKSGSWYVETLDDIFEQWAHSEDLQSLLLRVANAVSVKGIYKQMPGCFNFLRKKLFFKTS
The experiment in a line: Inhibition of recombinant caspase-9 (unknown origin).

In assay [2] the target is T2, Apoptotic protease-activating factor 1 (Homo sapiens) (UniProt O14727).
T2 sequence (whole entry): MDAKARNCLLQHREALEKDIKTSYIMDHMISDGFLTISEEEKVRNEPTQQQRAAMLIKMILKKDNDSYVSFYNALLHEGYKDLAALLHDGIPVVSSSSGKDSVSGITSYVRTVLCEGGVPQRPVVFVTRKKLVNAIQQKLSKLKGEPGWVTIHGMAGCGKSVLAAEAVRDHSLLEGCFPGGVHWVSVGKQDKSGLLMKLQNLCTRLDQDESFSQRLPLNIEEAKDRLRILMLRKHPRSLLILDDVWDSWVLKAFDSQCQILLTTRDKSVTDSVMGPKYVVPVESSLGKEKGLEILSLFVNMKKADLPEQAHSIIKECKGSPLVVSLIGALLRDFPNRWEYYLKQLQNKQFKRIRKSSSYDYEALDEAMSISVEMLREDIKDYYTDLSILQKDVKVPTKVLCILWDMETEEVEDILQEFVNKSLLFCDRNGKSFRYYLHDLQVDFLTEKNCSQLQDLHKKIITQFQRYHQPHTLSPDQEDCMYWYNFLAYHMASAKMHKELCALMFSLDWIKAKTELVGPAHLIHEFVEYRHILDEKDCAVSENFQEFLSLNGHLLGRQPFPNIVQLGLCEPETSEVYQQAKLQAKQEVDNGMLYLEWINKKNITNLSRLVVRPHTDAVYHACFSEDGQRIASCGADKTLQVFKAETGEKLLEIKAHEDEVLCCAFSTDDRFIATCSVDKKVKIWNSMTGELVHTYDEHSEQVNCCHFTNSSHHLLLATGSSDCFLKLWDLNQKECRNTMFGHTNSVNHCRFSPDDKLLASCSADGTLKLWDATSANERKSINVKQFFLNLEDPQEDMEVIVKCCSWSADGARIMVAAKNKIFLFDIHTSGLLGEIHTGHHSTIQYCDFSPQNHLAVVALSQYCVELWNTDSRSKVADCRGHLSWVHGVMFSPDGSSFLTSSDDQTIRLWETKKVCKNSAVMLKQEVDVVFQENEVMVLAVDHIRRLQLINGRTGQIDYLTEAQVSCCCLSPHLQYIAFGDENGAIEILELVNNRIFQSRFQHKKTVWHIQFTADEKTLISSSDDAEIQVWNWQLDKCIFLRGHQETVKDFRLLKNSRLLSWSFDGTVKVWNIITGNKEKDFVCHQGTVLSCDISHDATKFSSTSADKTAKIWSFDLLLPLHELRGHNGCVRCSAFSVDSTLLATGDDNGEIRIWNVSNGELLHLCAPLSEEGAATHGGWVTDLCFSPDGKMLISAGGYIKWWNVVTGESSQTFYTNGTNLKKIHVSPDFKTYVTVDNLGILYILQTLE
Briefly: Binding affinity to Apaf1 (unknown origin) assessed as inhibition of procaspase-9 activity.

In the case of `O=C1C(c2cn(CCc3ccc(Cl)cc3Cl)nn2)N(CCC(c2ccccc2)c2ccccc2)C(=O)CN1CCc1ccc(Cl)cc1Cl` (stereo not drawn), the inhibition entry in assay [1] is “inactive”. In addition, the inhibition entry in assay [2] was “Active”.

As to `NC(=O)CN(CCc1ccc(Cl)cc1Cl)C(=O)CC1C(=O)N(CCc2ccc(Cl)cc2Cl)CC(=O)N1CCC(c1ccccc1)c1ccccc1` (racemic), the inhibition result in assay [1] was “inactive”. For the same molecule, the inhibition result in assay [2] is “Active”.

In the case of `O=C1C(c2cnnn2CCc2ccc(Cl)cc2Cl)N(CCC(c2ccccc2)c2ccccc2)C(=O)CN1CCc1ccc(Cl)cc1Cl` (racemic), the inhibition result in assay [1] is “inactive”. The inhibition result in assay [2] was “Active”.

In the case of `O=C1CC(C(=O)NCCc2ccc(Cl)cc2Cl)(c2cnn(CCc3ccc(Cl)cc3Cl)n2)N1CCC(c1ccccc1)c1ccccc1` (racemic), the inhibition result in assay [1] is “inactive”. Also, the inhibition result in assay [2] was “Active”.
